Laboratory results as given in patent US5976523A, “Method for healing compromised tissues using pyrimidine derivatives” (Mitsui Pharmaceuticals, Inc., priority 1995, dated 1999).
Structures can show the parent of a compound that is named as a salt.

Experiments:
PDGF-A mRNAs = experiment: Northern blot analysis of PDGF-A mRNA expression in cultured rat SMCs; type: cell-based
Method: SMCs were prepared following the method proposed by Ross and Klebanoff in "J. Cell. Biol.", 50, 159 ff, 1971 with partial modifications. A rat thoracic aorta was excised. After the tunica externa was peeled off, the tunica media and the tunica intima were minced into 2-3 mm^2. The minced sections were placed standstill in a 25-cm^2 flask which contained Waymouth's MB 752/1 medium containing 10% FBS and 80 ng/ml of gentamycin (product of Schering-Plough Corp.), followed by incubation at 37° C. for 2 to 3 weeks in the presence of 5% carbon dioxide gas (primary culture). The same volume of a trypsin-EDTA solution was added to the flask. After the sections were treated at 37° C. for 5 minutes to peel off cells, the cells were diluted with 10% FBS-Waymouth's MB 752/1 medium and then subcultured (second generation). Subculture was successively conducted likewise whenever the SMC became confluent. In the following experiments, the cells from the 5th generation to the 12th generation were employed.
After reach in confluence of cells, the cultured SMCs were cultured for 2 days in a serum-free medium to avoid influence of serum. The SMCs were then added with thrombin (1.0 U/ml) or serotonin (5 μM), followed by incubation at 37° C. for 6 hours under which bring about induction of PDGF-A mRNAs at the maximum. To prevent dissociation of ribosomes and mRNAs, cycloheximide (100 μg/ml) was added 5 minutes before cells were collected.
Preparation of a polysome fraction and extraction of RNAs were conducted following the method proposed by Kasper, et al. in "J. Biol. Chem.", 267, 508 ff, 1992 with slight modifications. The cells, which had been collected by the treatment with trypsin, were washed with PBS containing cycloheximide (100 μg/ml). A cell precipitate was then added with 500 μl of a high-salt lysis buffer (20 mM Tris-HCl pH 7.5, 250 mM NaCl, 5 mM MgCl2, 0.1% Noni det P-40, 0.2% DOC) for homogenization. The homogenate was centrifuged under 12,000×g at 4° C. for 10 minutes. The resulting supernatant was added with 67 μl of a heparine mix (7.4 mg/ml heparine, 1.1M NaCl, 15 mM DTT and RNasin). 200 μl of the extract were layered on 5 ml of 0.5-1.25M linear sucrose gradient (which contained 20 mM Tris-HCl pH 7.4, 10 mM NaCl, 3 mM MgCl2), followed by centrifugation under 45,000 rpm for 90 minutes in a "Hitachi RP55ST". While monitoring the absorbance at 260 nm, ten (10) fractions were obtained. To prepare samples for the extraction of RNAs, the fractions were individually added with SDS and proteinase K to give final concentrations of 1% and 0.2 mg/ml, respectively. Subsequent to incubation at 37° C. for 1 hour, each fraction was extracted once with 1/2 volume of phenol, twice with 1/2 volume aliquots of chloroform, and once with the equal volume of chloroform, whereby proteins were removed. The water layer was added with glycogen (20 μg/ml) as a coprecipitant and then with 0.03M of sodium acetate, and RNAs were caused to precipitate with 2 volumes of ethanol.
After RNAs were incubated at 65° C. for 5 minutes in a solution containing 60% of formamide, 5.9% of formaldehyde and the equal volume of MOPS buffer (10 mM MOPS pH 7.0, 4 mM NaOAc, 0.5 mM EDTA), electrophoresis was conducted across 1.2% agarose gels containing the equal volume of MOPS buffer so that RNAs were. isolated. After the gel was washed with 20 volumes of SSC, RNAs were blotted overnight to a Gene Screen Plus membrane by the capillary method. Fixing of the RNAs was conducted by exposing them for 1 minute at a distance of 10 cm from a 15-W sterilamp. Using a "QuickHyb Hybridization Solution" (product of Strategene Ltd.), hybridization was conducted following the instruction manual attached to the solution. Results of autoradiography were quantitated with reference to the NIH Image. […]

TMK1 cells = experiment: Morphological change of TMK1 cells; type: cell-based
fractured tibia = experiment: Tibia fracture model, histology on the 7th day; type: in vivo, Wistar rat; details: 5 mg/kg i.p. once a day, 7 days
Method: The tibia of each Wistar (body weight: 260-330 g) was broken manually and stabilized in situ by using a 22G syringe needle as an intramedullary nail under anesthesia by pentobarbital. The rats were divided into two groups. To one of the groups, 2-piperazino-6-methyl-5-oxo-5,6-dihydro(7H)pyrro[3,4-d]pyrimidine maleate was intraperitoneally administered at 5 mg/kg once a day everyday for 7 days from immediately after the fracture. The other group was used as a control group, to which physiological saline was administered likewise. The rats in both the groups were sacrificed on the 7th day. The broken tibia of each rat was […], embedded in paraffin and then subjected to HE staining. The texture of the fractured site was pathohistologically examined. In the control group, proliferation mesenchymal cells, which were considered to be derived from periosteal cells, and membranous ossification of an osteoid tissue were observed centering around the fractured site on the 7th day after the fracture. Further, honeycomb-shaped proliferation of chondrocytes in a small number associated with formation of a cartilage matrix was observed inside the mesenchymal cells.

Q: `CN1Cc2nc(N3CCNCC3)ncc2C1=O` [Compound B, 2-piperazino-6-methyl-5-oxo-5,6-dihydro(7H)pyrro[3,4-d]pyrimidine maleate] was tested. Which fold induction at 100 µM (PDGF-A mRNAs; Rattus norvegicus, 6 h, read-out: expression amount of 1.7 kb PDGF-A mRNAs compared with control) did it give?
A: 1.4

Q: What about the “band of 1.3 kb PDGF-A” value (PDGF-A mRNAs; addition of compound) of the same compound?
A: additionally detected

Q: And the “2.3 kb PDGF-A mRNAs” value (PDGF-A mRNAs; compound 0.1 mM + thrombin)?
A: in greater amounts

Q: And the “2.9 kb PDGF-A mRNAs” value (PDGF-A mRNAs; compound 0.1 mM + thrombin)?
A: in greater amounts

Q: What about the “time of sprouting of the process of the cells similar to neurites” value (TMK1 cells; EGF and compound) of the same compound?
A: 8 h

Q: And the morphological changes (TMK1 cells; EGF and compound, compared with EGF alone)?
A: still more marked intensive morphological changes

Q: What about the “network formation of cell processes” value (TMK1 cells; EGF and compound, day 1) of the same compound?
A: forming a dense network on day 1

Q: What about the morphological changes (TMK1 cells; singly added, 1 mM, fifth hour to day 1) of the same compound?
A: only slight morphological changes

Q: And the “morphological changes after removal of the test agent” value (TMK1 cells; test agent removed)?
A: these morphological changes disappeared

Q: What about the “proliferation of mesenchymal cells at the fractured site” value (fractured tibia) of the same compound?
A: marked proliferation of mesenchymal cells

Q: And the “proliferation of chondrocytes associated with formation of a hyaline cartilage matrix enchondral ossification” value (fractured tibia; vs control group)?
A: in a quantity apparently much greater than that of the control group
